Measured values as given in article PMC9653409, “Generative deep learning enables the discovery of a potent and selective RIPK1 inhibitor” (Nature Communications, 2022).
Where two headings read alike, the source gives them in different places.

Columns and labels:
Assay in all cases: Kinase inhibitory activity profiling of RI-962@10 µM (406 kinases, Eurofins)
Assay type in all cases: biochemical
[1] = target: panel of human kinases (kinase named in endpoint) (Homo sapiens, UniProt P08581); settings: 10 µM; read-out: Activity (%), Met(h)
How it was run: (§1)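 Radiometric filter-binding kinase assays: enzyme preincubated 15 min with compound in 8 mM MOPS pH 7.0, 0.2 mM EDTA, 250 μM peptide substrate, 10 mM magnesium acetate, 10 μM [γ-33P]-ATP. Reaction started with Mg/ATP, run 40 min at room temperature, stopped with phosphoric acid; 33P incorporation read by scintillation counting. Other kinases by similar protocols.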

[2] = target: panel of human kinases (kinase named in endpoint) (Homo sapiens, UniProt O75460); settings: 10 µM; read-out: Activity (%), IRE1(h)
How it was run: as §1

[3] = target: panel of human kinases (kinase named in endpoint) (Homo sapiens, UniProt Q8IVH8); settings: 10 µM; read-out: Activity (%), MAP4K3(h)
How it was run: as §1

[4] = target: panel of human kinases (kinase named in endpoint) (Homo sapiens, UniProt Q99683); settings: 10 µM; read-out: Activity (%), ASK1(h)
How it was run: as §1

[5] = target: panel of human kinases (kinase named in endpoint) (Homo sapiens, UniProt Q86Z02); settings: 10 µM; read-out: Activity (%), HIPK1(h)
How it was run: as §1

[6] = target: panel of human kinases (kinase named in endpoint) (Homo sapiens, UniProt Q9Y6M4); settings: 10 µM; read-out: Activity (%), CK1γ3(h)
How it was run: as §1

[7] = target: panel of human kinases (kinase named in endpoint) (Homo sapiens, UniProt P57059); settings: 10 µM; read-out: Activity (%), SIK(h)
How it was run: as §1

[8] = target: panel of human kinases (kinase named in endpoint) (Homo sapiens, UniProt O75716); settings: 10 µM; read-out: Activity (%), STK16(h)
How it was run: as §1

[9] = target: panel of human kinases (kinase named in endpoint) (Homo sapiens, UniProt P50750); settings: 10 µM; read-out: Activity (%), CDK9/cyclin T1(h)
How it was run: as §1

[10] = target: panel of human kinases (kinase named in endpoint) (Homo sapiens, UniProt P06241); settings: 10 µM; read-out: Activity (%), Fyn(h)
How it was run: as §1

[11] = target: panel of human kinases (kinase named in endpoint) (Homo sapiens, UniProt P12931); settings: 10 µM
How it was run: as §1

[12] = target: panel of human kinases (kinase named in endpoint) (Homo sapiens, UniProt Q9P289); settings: 10 µM; read-out: Activity (%), MST4(h)
How it was run: as §1

[13] = target: panel of human kinases (kinase named in endpoint) (Homo sapiens, UniProt P04626); settings: 10 µM; read-out: Activity (%), ErbB2(h)
How it was run: as §1

[14] = target: panel of human kinases (kinase named in endpoint) (Homo sapiens, UniProt P53779); settings: 10 µM; read-out: Activity (%), JNK3(h)
How it was run: as §1

[15] = target: panel of human kinases (kinase named in endpoint) (Homo sapiens, UniProt Q9BYT3); settings: 10 µM; read-out: Activity (%), STK33(h)
How it was run: as §1

[16] = target: panel of human kinases (kinase named in endpoint) (Homo sapiens, UniProt Q06418); settings: 10 µM; read-out: Activity (%), Rse(h)
How it was run: as §1

[17] = target: panel of human kinases (kinase named in endpoint) (Homo sapiens, UniProt Q92918); settings: 10 µM; read-out: Activity (%), HPK1(h)
How it was run: as §1

[18] = target: panel of human kinases (kinase named in endpoint) (Homo sapiens, UniProt Q9NYY3); settings: 10 µM; read-out: Activity (%), Snk(h)
How it was run: as §1

[19] = target: panel of human kinases (kinase named in endpoint) (Homo sapiens, UniProt P10398); settings: 10 µM; read-out: Activity (%), A-Raf(h)
How it was run: as §1

[20] = target: panel of human kinases (kinase named in endpoint) (Homo sapiens, UniProt Q08881); settings: 10 µM; read-out: Activity (%), Itk(h)
How it was run: as §1

[21] = target: panel of human kinases (kinase named in endpoint) (Homo sapiens, UniProt Q9BQI3); settings: 10 µM; read-out: Activity (%), HRI(h)
How it was run: as §1

[22] = target: panel of human kinases (kinase named in endpoint) (Homo sapiens, UniProt Q15349); settings: 10 µM; read-out: Activity (%), Rsk3(h)
How it was run: as §1

[23] = target: panel of human kinases (kinase named in endpoint) (Homo sapiens, UniProt Q2M2I8); settings: 10 µM; read-out: Activity (%), AAK1(h)
How it was run: as §1

[24] = target: panel of human kinases (kinase named in endpoint) (Homo sapiens, UniProt P08581, D1228H); settings: 10 µM; read-out: Activity (%), Met(D1246H)(h)
How it was run: as §1

[25] = target: panel of human kinases (kinase named in endpoint) (Homo sapiens, UniProt P51957); settings: 10 µM; read-out: Activity (%), NEK4(h)
How it was run: as §1

[26] = target: panel of human kinases (kinase named in endpoint) (Homo sapiens, UniProt O15264); settings: 10 µM; read-out: Activity (%), SAPK4(h)
How it was run: as §1

Chain of panel of human kinases (kinase named in endpoint) (Homo sapiens, UniProt P12931) (P12931 whole entry): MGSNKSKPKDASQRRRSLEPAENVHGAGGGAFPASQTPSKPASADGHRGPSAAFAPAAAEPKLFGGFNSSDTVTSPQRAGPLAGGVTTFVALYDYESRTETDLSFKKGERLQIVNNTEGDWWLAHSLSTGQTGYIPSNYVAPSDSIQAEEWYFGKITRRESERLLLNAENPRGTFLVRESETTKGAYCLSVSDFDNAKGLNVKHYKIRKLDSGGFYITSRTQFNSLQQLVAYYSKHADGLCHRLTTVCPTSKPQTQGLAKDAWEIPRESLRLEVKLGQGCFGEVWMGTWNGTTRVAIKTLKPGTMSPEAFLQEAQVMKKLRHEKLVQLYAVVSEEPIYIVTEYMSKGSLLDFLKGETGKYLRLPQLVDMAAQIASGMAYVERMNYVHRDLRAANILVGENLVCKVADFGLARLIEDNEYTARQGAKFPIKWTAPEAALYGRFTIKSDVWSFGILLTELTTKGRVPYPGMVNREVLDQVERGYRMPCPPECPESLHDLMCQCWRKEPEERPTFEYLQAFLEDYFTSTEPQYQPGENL
Chain of panel of human kinases (kinase named in endpoint) (Homo sapiens, UniProt Q86Z02) (Q86Z02 whole entry): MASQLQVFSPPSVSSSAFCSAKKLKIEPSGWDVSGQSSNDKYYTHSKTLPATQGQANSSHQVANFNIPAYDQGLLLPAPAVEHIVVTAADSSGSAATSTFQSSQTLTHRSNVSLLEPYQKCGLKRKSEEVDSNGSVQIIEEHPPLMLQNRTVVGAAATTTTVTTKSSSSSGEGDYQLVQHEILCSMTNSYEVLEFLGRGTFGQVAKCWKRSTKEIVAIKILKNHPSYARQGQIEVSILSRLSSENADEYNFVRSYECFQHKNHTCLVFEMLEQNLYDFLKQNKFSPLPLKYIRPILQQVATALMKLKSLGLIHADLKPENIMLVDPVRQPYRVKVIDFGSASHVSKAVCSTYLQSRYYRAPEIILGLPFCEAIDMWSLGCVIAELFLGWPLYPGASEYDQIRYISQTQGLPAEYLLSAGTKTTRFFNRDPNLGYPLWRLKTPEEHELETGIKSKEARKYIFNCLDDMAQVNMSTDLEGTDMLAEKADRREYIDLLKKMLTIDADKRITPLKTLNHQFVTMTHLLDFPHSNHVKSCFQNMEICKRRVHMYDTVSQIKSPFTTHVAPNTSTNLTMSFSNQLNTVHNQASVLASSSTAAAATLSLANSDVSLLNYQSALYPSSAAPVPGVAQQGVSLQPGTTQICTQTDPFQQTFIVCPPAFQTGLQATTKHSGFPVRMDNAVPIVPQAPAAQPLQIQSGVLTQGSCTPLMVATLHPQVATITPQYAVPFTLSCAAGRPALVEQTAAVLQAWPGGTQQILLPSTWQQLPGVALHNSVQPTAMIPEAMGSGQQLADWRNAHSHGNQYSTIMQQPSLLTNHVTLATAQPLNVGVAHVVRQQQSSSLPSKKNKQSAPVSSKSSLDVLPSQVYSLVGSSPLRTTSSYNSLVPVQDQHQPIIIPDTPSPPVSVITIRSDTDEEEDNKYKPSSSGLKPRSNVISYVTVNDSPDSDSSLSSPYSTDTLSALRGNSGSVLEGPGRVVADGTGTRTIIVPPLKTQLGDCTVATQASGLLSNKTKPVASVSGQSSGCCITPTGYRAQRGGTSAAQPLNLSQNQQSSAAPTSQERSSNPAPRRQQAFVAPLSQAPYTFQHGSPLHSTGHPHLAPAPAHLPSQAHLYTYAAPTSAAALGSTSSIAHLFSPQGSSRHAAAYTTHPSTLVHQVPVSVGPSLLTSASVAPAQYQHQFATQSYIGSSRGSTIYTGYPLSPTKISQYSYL
Chain of panel of human kinases (kinase named in endpoint) (Homo sapiens, UniProt Q8IVH8) (Q8IVH8 whole entry): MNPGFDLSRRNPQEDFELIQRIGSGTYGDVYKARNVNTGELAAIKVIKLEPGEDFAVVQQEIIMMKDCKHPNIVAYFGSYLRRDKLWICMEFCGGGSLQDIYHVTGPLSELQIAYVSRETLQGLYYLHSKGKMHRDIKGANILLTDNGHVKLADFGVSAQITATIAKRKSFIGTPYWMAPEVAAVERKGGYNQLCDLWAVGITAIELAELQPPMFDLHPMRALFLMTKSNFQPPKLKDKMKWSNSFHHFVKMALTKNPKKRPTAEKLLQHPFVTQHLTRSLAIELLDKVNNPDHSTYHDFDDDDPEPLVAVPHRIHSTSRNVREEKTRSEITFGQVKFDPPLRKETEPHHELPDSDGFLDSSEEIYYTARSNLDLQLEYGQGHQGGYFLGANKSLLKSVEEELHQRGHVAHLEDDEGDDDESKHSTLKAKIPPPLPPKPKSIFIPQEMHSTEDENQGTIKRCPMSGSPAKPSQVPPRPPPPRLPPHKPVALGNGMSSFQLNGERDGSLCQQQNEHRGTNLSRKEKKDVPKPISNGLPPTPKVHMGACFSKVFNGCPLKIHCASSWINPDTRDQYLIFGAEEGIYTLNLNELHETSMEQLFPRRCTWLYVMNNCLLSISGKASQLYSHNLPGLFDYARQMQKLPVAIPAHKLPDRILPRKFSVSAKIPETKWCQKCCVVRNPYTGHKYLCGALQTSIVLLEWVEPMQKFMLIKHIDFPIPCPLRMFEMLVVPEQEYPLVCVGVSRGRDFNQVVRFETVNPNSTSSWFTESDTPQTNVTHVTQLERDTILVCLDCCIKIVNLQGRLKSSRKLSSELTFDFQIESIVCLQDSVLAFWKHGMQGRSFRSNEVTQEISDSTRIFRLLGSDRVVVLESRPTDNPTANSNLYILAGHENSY
Chain of panel of human kinases (kinase named in endpoint) (Homo sapiens, UniProt P06241) (P06241 whole entry): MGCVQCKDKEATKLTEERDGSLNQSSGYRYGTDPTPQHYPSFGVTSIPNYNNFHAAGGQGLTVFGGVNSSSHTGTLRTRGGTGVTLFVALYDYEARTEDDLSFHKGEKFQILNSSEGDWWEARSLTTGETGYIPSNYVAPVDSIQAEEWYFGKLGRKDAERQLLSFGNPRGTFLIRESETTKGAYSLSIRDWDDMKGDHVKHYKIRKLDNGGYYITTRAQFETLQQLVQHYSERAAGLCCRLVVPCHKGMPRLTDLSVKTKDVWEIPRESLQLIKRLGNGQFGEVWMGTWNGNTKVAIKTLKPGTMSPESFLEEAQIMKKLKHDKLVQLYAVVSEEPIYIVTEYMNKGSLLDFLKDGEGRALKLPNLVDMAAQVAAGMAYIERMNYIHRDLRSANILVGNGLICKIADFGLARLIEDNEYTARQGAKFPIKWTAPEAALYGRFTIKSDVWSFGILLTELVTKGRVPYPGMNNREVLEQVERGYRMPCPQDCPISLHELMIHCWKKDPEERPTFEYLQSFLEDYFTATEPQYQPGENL
Chain of panel of human kinases (kinase named in endpoint) (Homo sapiens, UniProt Q9BYT3) (Q9BYT3 whole entry): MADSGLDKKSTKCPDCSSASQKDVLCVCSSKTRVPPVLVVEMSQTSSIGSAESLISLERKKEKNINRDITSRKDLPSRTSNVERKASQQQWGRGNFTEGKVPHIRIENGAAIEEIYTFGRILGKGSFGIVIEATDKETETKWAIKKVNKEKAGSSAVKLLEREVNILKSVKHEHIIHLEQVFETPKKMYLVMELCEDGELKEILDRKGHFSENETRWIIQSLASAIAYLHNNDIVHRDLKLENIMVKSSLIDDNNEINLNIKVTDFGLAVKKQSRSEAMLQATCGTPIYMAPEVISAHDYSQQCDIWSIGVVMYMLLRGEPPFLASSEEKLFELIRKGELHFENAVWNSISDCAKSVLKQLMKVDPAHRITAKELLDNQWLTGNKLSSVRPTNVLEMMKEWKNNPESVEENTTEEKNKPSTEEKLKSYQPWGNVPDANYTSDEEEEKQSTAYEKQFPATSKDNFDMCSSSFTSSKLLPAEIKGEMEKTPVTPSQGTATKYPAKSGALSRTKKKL
Chain of panel of human kinases (kinase named in endpoint) (Homo sapiens, UniProt Q9P289) (Q9P289 whole entry): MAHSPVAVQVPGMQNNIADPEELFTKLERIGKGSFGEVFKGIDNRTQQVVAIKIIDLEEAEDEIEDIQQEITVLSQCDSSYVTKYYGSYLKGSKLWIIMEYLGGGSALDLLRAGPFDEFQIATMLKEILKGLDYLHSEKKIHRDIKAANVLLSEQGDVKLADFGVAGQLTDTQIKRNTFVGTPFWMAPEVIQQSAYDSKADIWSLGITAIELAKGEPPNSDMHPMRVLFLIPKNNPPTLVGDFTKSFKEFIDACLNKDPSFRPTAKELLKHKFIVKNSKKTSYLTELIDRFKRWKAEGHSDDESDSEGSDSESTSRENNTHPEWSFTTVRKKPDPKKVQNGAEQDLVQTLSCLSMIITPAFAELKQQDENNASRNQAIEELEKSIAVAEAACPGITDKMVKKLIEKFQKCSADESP
Chain of panel of human kinases (kinase named in endpoint) (Homo sapiens, UniProt O75716) (O75716 whole entry): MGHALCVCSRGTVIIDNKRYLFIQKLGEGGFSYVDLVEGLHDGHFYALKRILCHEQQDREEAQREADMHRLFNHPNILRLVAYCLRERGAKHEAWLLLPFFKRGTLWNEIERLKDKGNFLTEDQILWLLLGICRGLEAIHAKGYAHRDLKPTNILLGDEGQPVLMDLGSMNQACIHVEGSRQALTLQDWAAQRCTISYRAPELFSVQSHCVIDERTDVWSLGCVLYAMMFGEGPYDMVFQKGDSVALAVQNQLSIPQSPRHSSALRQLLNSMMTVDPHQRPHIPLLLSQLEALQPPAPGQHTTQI
Chain of panel of human kinases (kinase named in endpoint) (Homo sapiens, UniProt Q9BQI3) (Q9BQI3 whole entry): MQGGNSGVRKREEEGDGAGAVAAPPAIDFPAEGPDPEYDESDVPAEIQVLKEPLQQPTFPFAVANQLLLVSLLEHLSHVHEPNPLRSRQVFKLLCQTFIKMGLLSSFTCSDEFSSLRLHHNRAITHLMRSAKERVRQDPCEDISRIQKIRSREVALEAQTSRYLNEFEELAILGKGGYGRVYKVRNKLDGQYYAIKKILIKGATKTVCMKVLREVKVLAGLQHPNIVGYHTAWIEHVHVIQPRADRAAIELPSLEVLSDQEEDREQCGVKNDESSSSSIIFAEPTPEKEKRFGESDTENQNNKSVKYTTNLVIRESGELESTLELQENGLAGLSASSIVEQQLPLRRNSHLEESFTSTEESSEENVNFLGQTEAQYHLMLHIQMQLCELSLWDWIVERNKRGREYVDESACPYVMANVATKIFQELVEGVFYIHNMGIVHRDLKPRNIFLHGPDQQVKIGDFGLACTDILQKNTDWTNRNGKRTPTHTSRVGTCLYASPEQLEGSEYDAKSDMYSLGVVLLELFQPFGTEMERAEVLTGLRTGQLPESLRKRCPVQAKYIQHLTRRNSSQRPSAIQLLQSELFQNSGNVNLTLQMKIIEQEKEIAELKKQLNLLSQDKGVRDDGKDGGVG

CC(C)C(=O)Nc1nc2cc(-c3ccc4c(c3)c(C(=O)NC(C)c3ccccc3)cn4C)ccn2n1 (stereo not drawn) [RI-962]
activity at 10 µM [1]: 102%
activity at 10 µM [2]: 115%
activity at 10 µM [3]: 85%
activity at 10 µM [4]: 97%
activity at 10 µM [5]: 103%
activity at 10 µM [6]: 96%
activity at 10 µM [7]: 137%
activity at 10 µM [8]: 100%
activity at 10 µM [9]: 67%
activity at 10 µM [10]: 107%
activity at 10 µM ([11]; read-out: Activity (%), Src(1-530)(h)): 95%
activity at 10 µM ([11]; read-out: Activity (%), cSRC(h)): 100%
activity at 10 µM [12]: 119%
activity at 10 µM [13]: 104%
activity at 10 µM [14]: 56%
activity at 10 µM [15]: 85%
activity at 10 µM [16]: 108%
activity at 10 µM [17]: 92%
activity at 10 µM [18]: 79%
activity at 10 µM [19]: 80%
activity at 10 µM [20]: 71%
activity at 10 µM [21]: 99%
activity at 10 µM [22]: 110%
activity at 10 µM [23]: 106%
activity at 10 µM [24]: 134%
activity at 10 µM [25]: 104%
activity at 10 µM [26]: 91%
